Literature values in publication PMC9737391, “Trifluoromethylcinnamanilide Michael Acceptors for Treatment of Resistant Bacterial Infections” (International Journal of Molecular Sciences, 2022).

Experiments:
S. aureus ATCC 29213 = conditions: MTT, at 0.25× MIC; cited from earlier work
M. tuberculosis H37Ra = system: M. tuberculosis H37Ra; design: method as in ref 26 = [26]; PMID 30087309; doi:10.3390/ijms19082318; 26. Pospisilova S. Kos J. Michnova H. Kapustikova I. Strharsky T. Oravec M. Moricz A.M. Bakonyi J. Kauerova T. Kollar P. Synthesis and spectrum of biological activities of novel N -arylcinnamamides In; conditions: average over the named compounds; cited from earlier work
M. tuberculosis = system: M. tuberculosis; design: method as in ref 26 = [26]; PMID 30087309; doi:10.3390/ijms19082318; 26. Pospisilova S. Kos J. Michnova H. Kapustikova I. Strharsky T. Oravec M. Moricz A.M. Bakonyi J. Kauerova T. Kollar P. Synthesis and spectrum of biological activities of novel N -arylcinnamamides In; conditions: MTT, at MIC values; cited from earlier work
NF-κB = system: NF-κB; design: method as in PMID 31835703; conditions: compared with prednisone; cited from earlier work
S. aureus/MRSA = system: S. aureus/MRSA; design: method as in ref 26, 51 = [26]; PMID 30087309; doi:10.3390/ijms19082318; 26. Pospisilova S. Kos J. Michnova H. Kapustikova I. Strharsky T. Oravec M. Moricz A.M. Bakonyi J. Kauerova T. Kollar P. Synthesis and spectrum of biological activities of novel N -arylcinnamamides In || [51]; 51. Pospisilova S. Kos J. Michnova H. Strharsky T. Cizek A. Jampilek J. N -Arylcinnamamides as antistaphylococcal agents Proceedings of the 4th International Electronic Conference on Medicinal Chemist; conditions: cited from earlier work
MRSA = system: MRSA; design: method as in ref 26, 51 = [26]; PMID 30087309; doi:10.3390/ijms19082318; 26. Pospisilova S. Kos J. Michnova H. Kapustikova I. Strharsky T. Oravec M. Moricz A.M. Bakonyi J. Kauerova T. Kollar P. Synthesis and spectrum of biological activities of novel N -arylcinnamamides In || [51]; 51. Pospisilova S. Kos J. Michnova H. Strharsky T. Cizek A. Jampilek J. N -Arylcinnamamides as antistaphylococcal agents Proceedings of the 4th International Electronic Conference on Medicinal Chemist; conditions: against MRSA; cited from earlier work
staphylococcal biofilm = system: staphylococcal biofilm; design: method as in ref 26, 51 = [26]; PMID 30087309; doi:10.3390/ijms19082318; 26. Pospisilova S. Kos J. Michnova H. Kapustikova I. Strharsky T. Oravec M. Moricz A.M. Bakonyi J. Kauerova T. Kollar P. Synthesis and spectrum of biological activities of novel N -arylcinnamamides In || [51]; 51. Pospisilova S. Kos J. Michnova H. Strharsky T. Cizek A. Jampilek J. N -Arylcinnamamides as antistaphylococcal agents Proceedings of the 4th International Electronic Conference on Medicinal Chemist; conditions: cited from earlier work
[1] = system: Plasmodium falciparum 3D7; design: method as in PMID 36431900; conditions: read-out: IC50 against Plasmodium falciparum 3D7; cited from earlier work

| Structure (SMILES) | average MIC against M. tuberculosis H37Ra (M. tuberculosis H37Ra) | inhibition of M. tuberculosis respiration (M. tuberculosis) [%] | bactericidal effect (S. aureus/MRSA) | effect on staphylococcal biofilm (staphylococcal biofilm) | other results |
| --- | --- | --- | --- | --- | --- |
| O=C(/C=C/c1ccc(Cl)c(Cl)c1)Nc1cc(C(F)(F)F)cc(C(F)(F)F)c1 [4f] |  |  |  |  | inhibition of S. aureus respiration (S. aureus ATCC 29213): 96% |
| O=C(/C=C/c1ccccc1)Nc1cc(Cl)cc(Cl)c1 [3d] | ~ 24 µM | 77 |  |  |  |
| O=C(/C=C/c1ccccc1)Nc1cc(C(F)(F)F)ccc1Cl [3g] |  |  |  |  | anti-inflammatory potential (NF-κB inhibition) (NF-κB): comparable to that prednisone |
| O=C(/C=C/c1ccccc1)Nc1cc(C(F)(F)F)cc(C(F)(F)F)c1 [3b] | ~ 24 µM | 77 | bactericidal effect in concentrations close to MICs | ability to inhibit the growth of staphylococcal biofilm and disrupted mature biofilm in concentrations close to MICs | effect in combination with ciprofloxacin (MRSA): synergistic effect; effect in combination with tetracycline (MRSA): synergistic effect; effect in combination with vancomycin (MRSA): additivity |
| O=C(/C=C/c1ccccc1)Nc1ccc(Br)cc1Cl [3f] |  |  |  |  | IC50 [1]: 0.58 µM |
| O=C(/C=C/c1ccccc1)Nc1cccc(C(F)(F)F)c1 [3a] | ~ 24 µM |  | bactericidal effect in concentrations close to MICs | ability to inhibit the growth of staphylococcal biofilm and disrupted mature biofilm in concentrations close to MICs |  |
